Measured values: patent publication US4988517A, “Method and composition for inhibiting colon carcinogenesis” (American Health Foundation, priority 1988, dated 1991)
“Also recorded” adds a separate entry of the source.

Key:
[1] = Body weights of male F344 rats fed the experimental diets; assay type: in vivo; details: for Body wt, Initial (Wk 0) / Body wt, wk 4 / Body wt, wk 8 / Body wt, wk 16 / Body wt, wk 22 / Body wt, wk 30 / Body wt, wk 37 (at termination): 25 ppm in diet, Mean ± SD
Description: (§1) Experimental Procedure. Male F344 rats received at weaning were quarantined for 10 days and given access to AIN-76A semipurified diet (control diet). They were then be randomly allocated by weight to one of three dietary groups (control diet and 25 ppm BSC and 25 ppm benzylthiocyanate ("BTC") diets). […] Therefore one of our goals was to compare BSC with its sulfur analog BTC. Each dietary group was divided into AOM-treated (27 animals per subgroup) and vehicle-treated (12 animals per subgroup) subgroups and housed in plastic cages with filter tops in the animal holding room under controlled environmental conditions.
(§2) Beginning at 5 wk of age, groups of rats fed the control diet were transferred to diets containing 25 ppm BSC or 25 ppm BTC. At 7 wk of age, the animals in each group, except the vehicle-treated controls, received two weekly s.c. injections of AOM at a dose level of 15 mg/kg body weight/wk. Vehicle controls were treated with an equal volume of normal saline. One wk after AOM or saline treatment, animals receiving the BSC and BTC diets were transferred to the control diets and continued on this diet until the termination of the experiment. The 1-wk delay before transferring to control diet was to ensure complete metabolism and excretion of the carcinogen. The animals receiving the control diet continued on the same diet. The experiment was terminated 34 wk after the last AOM injection.
(§3) Body weights were recorded weekly until the animals reach 16 wk of age and then every 4 wk. Six vehicle-treated animals randomly chosen from each dietary group while they were consuming experimental and control diets were used for tissue and blood plasma glutathione peroxidase analysis.

[2] = system: azoxymethane-induced colon tumors; assay: AOM-induced colon tumor incidence and multiplicity (initiation phase feeding); assay type: in vivo, male F344 rats
Description: as §1, §2
(§4) Both AOM-and vehicle-treated animals were sacrificed by CO2 euthanasia. Following laparotomy, the entire stomach, small intestine, and large intestine were resected and opened longitudinally, and the contents flushed with normal saline. The location, number, and size of the colon and small intestinal tumors were noted grossly under the dissection microscope. All other organs, including liver and kidneys, were also examined grossly for tumors. Tissues were fixed in 10% buffered formalin, embedded in paraffin blocks, and processed by routine histological methods with the use of eosin and hematoxylin stains.
(§5) Statistical Analysis. The data on tumor incidence were analyzed statistically by the x^2 method and Fischer's exact probability test, and tumor multiplicity was analyzed by Student's t test. Biochemical results were analyzed by Student's t test.
(§6) Using the above-identified procedures, a study was made of the effect of feeding benzylselenocyanate and its sulfur analogue, benzylthiocyanate, two (2) weeks before, during and until one (1) week after carcinogen administration (initiation phase) on intestinal carcinogenesis induced by azoxymethane (CAS: 25843-45-2) in male F344 rats.

[3] = system: azoxymethane-induced small intestinal tumors; assay: AOM-induced small intestinal tumor incidence and multiplicity; assay type: in vivo, male F344 rats
Description: as §1, §2, §4, §5, §6

[4] = system: azoxymethane-induced ear duct tumors; assay: AOM-induced ear duct tumor incidence; assay type: in vivo, male F344 rats; details: 25 ppm in diet; AOM treated
Description: as §1, §2
as §4, with “Tissues were fixed in 10% buffered formalin, embedded in paraffin blocks, and processed by routine histological methods with the use of eosin and hematoxylin stains.” left out
as §5

[5] = system: azoxymethane-induced metastasis; assay: AOM-induced metastasis; assay type: in vivo, male F344 rats
Description: as §1, §2, §4

[6] = system: selenium-dependent glutathione peroxidase; assay: Selenium-dependent glutathione peroxidase activity in tissues of rats fed the diets; assay type: in vivo, male F344 rats
Description: as §3
Biochemical Determination. For the determination of tissue and blood plasma glutathione peroxidase activity, 6 vehicle-treated animals from each dietary group, while the animals were on experimental and control diets, were used. Before sacrificing the animals, blood was obtained under ether anesthesia by cardiac puncture with a syringe. They were then decapitated,and liver, kidneys, small intestine, and colon were rapidly removed. The liver was perfused with ice-cold normal saline. The small intestine and colon were slit open longitudinally and freed from all the contents, and the mucosa was scraped with a microscope glass slide. The liver and kidneys were trimmed free of connective tissue, minced with scissors, and homogenized for 10 s in 3 volumes of buffer, pH 7.3 (0.25 sucrose-10 mM EDTA-50 mM potassium phosphate) using a Brinkman Polytron at low speed. The colonic and small intestinal mucosal scrapings were immediately placed into 3 volumes of the same buffer and homogenized similarly. The homogenates were centrifuged in a Sorvall RC-2B centrifuge at 10,000×g, 4° C., for 20 min. The supernatant was centrifuged in a Beckman Ultracentrifuge at 100,000×g, 4° C., for 1 h. The resulting cytosol fraction was used for determination of glutathione peroxidase activity and protein.
Glutathione peroxidase activity was determined spectrophotometrically according to a modification of the enzyme-coupled assay procedure of Paglia and Valentine. The reaction mixture consisted of 50 mM potassium phosphate buffer (pH 7.0), 1 mM EDTA, 0.2 mM NADPH, 1 enzyme unit/ml oxidized glutathione-reductase, 1 mM glutathione, and 1.5 mM cumene hydroperoxide in a total volume of 1 ml. The cytosol was added to the above mixture and allowed to incubate 5 min. at room temperature. Total glutathione peroxide was measured with cumene hydroperoxide as a substrate. Selenium-dependent glutathione peroxide was measured with tert-butyl hydroperoxide. The reaction was started with the addition of substrate solution. Absorbance was measured at 340 nm, and activity was measured from the slope of the lines as mol NADPH oxidized/min/mg protein. Blank reactions without cytosol were run simultaneously. Protein concentration in the cytosol fraction was measured by the method of Lowry et al. with bovine serum albumin as standard.
as §5

[7] = system: non-selenium-dependent glutathione peroxidase; assay: Non-selenium-dependent glutathione peroxidase activity in tissues of rats fed the diets; assay type: in vivo, male F344 rats; details: among the dietary groups
Description: as §3
Biochemical Determination. For the determination of tissue and blood plasma glutathione peroxidase activity, 6 vehicle-treated animals from each dietary group, while the animals were on experimental and control diets, were used. Before sacrificing the animals, blood was obtained under ether anesthesia by cardiac puncture with a syringe. They were then decapitated,and liver, kidneys, small intestine, and colon were rapidly removed. The liver was perfused with ice-cold normal saline. […]
Glutathione peroxidase activity was determined spectrophotometrically according to a modification of the enzyme-coupled assay procedure of Paglia and Valentine. […] Total glutathione peroxide was measured with cumene hydroperoxide as a substrate. Selenium-dependent glutathione peroxide was measured with tert-butyl hydroperoxide. […] Absorbance was measured at 340 nm, and activity was measured from the slope of the lines as mol NADPH oxidized/min/mg protein. […] Protein concentration in the cytosol fraction was measured by the method of Lowry et al. with bovine serum albumin as standard.

[8] = General toxicity observation in rats fed the diets; assay type: in vivo, male F344 rats; details: 25 ppm in diet
Description: as §1, §2, §3

LD50 in rats = details: rat, in vivo
Description: (§7) The instant invention may open new approaches to the development of effective and less toxic novel selenium-containing chemopreventive agents. For example, although is too early to determine definitively the optimum dose which will be suitable for human use, we can estimate a dose based on the LD50 of BSC in rats (lethal dose at which 50% of the rats die). […] An order of magnitude of ten (10) times less than the LD50 may be appropriate for humans.

[9] = LD50 in humans, extrapolated from rats; set-up: unit not given here; details: extrapolated: 125×70^0.75
Description: as §7

[10] = system: benzo(a) pyrene-induced forestomach tumors; details: mice; cited from earlier work
[11] = system: azoxymethane ("AOM")-induced colon, kidney, and hepatocarcinogenesis; details: 50 ppm in semipurified high fat diet, 2 wk before, during, 1 wk after carcinogen, liver; cited from earlier work
[12] = 25 ppm in diet 2 wk before to 1 wk after AOM
[13] = 25 ppm in diet, 27 (BSC) or 26 (BTC) animals/group
[14] = 25 ppm in diet 5 wk, Mean ± SE (n = 6)

SMILES: N#C[Se]Cc1ccccc1 [BSC, benzylselenocyanate]
- Body weights of animals fed experimental vs control diets ([1]; AOM or vehicle treated, in words): comparable
- Body wt, Initial (Wk 0) ([1]; AOM treated): 40 ± 4 g
- Body wt, wk 4 ([1]; AOM treated): 174 ± 9 g
- Body wt, wk 8 ([1]; AOM treated): 279 ± 15 g
- Body wt, wk 16 ([1]; AOM treated): 348 ± 16 g
- Body wt, wk 22 ([1]; AOM treated): 390 ± 21 g
- Body wt, wk 30 ([1]; AOM treated): 430 ± 20 g
- Body wt, wk 37 (at termination) ([1]; AOM treated): 449 ± 22 g
- Body wt, Initial (Wk 0) ([1]; Vehicle treated): 41 ± 4 g
- Body wt, wk 4 ([1]; Vehicle treated): 179 ± 12 g
- Body wt, wk 8 ([1]; Vehicle treated): 284 ± 19 g
- Body wt, wk 16 ([1]; Vehicle treated): 364 ± 19 g
- Body wt, wk 22 ([1]; Vehicle treated): 402 ± 20 g
- Body wt, wk 30 ([1]; Vehicle treated): 448 ± 26 g
- Body wt, wk 37 (at termination) ([1]; Vehicle treated): 467 ± 21 g
- Colon tumor incidence, Adenocarcinoma [2, 12]: 11 % of animals with tumors
- Colon tumor incidence, Adenoma [2, 12]: 44 % of animals with tumors
- Colon tumor incidence, Total (adenomas plus adenocarcinomas) [2, 12]: 48 % of animals with tumors
- Number of animals with colon tumors, Adenocarcinoma [2, 13]: 3 number of animals
- Number of animals with colon tumors, Adenoma [2, 13]: 12 number of animals
- Number of animals with colon tumors, Total [2, 13]: 13 number of animals
- Colon tumor multiplicity, Adenocarcinoma ([2]; 25 ppm in diet, Mean ± SD): 0.11 ± 0.3 no. of tumors/animals
- Colon tumor multiplicity, Adenoma ([2]; 25 ppm in diet, Mean ± SD): 0.70 ± 0.9 no. of tumors/animals
- Colon tumor multiplicity, Total ([2]; 25 ppm in diet, Mean ± SD): 0.81 ± 1.0 no. of tumors/animals
- Number of tumors per group, colon Adenocarcinoma ([2]; 25 ppm in diet, in parentheses): 3 number of tumors per group
- Inhibition of AOM-induced colon tumors (in words) ([2]; initiation phase of carcinogenesis): inhibits AOM-induced tumors in the colon; also recorded: inhibited colon tumors during the initiation phase of carcinogenesis
- Incidence of adenocarcinomas of the colon (in words) ([2]; vs control diet): significantly lower in rats fed the BSC diet than in those fed the control diet; also recorded: significantly inhibits
- Incidence of total colon tumors (in words) ([2]; vs control diet): significantly lower in rats fed the BSC diet than in those fed the control diet
- Number of colon adenocarcinomas per animal (in words) ([2]; vs control diet and BTC diet): significally inhibited in animals fed the BSC diet compared to those fed the control diet and BTC diet; also recorded: significantly inhibits
- Number of total colon tumors per animal (in words) ([2]; vs control diet and BTC diet): significally inhibited in animals fed the BSC diet compared to those fed the control diet and BTC diet
- Multiplicity of colon adenomas (in words) ([2]; vs control diet and BTC diet, not statistically significant): slight inhibition of multiplicity of adenomas in the BSC diet as compared to the control diet and BTC diet
- Small intestinal tumor incidence, Adenocarcinoma [3, 12]: 15 % of animals with tumors
- Small intestinal tumor incidence, Adenoma [3, 12]: 4 % of animals with tumors
- Small intestinal tumor incidence, Total [3, 12]: 19 % of animals with tumors
- Number of animals with small intestinal tumors, Adenocarcinoma [3, 13]: 4 number of animals
- Number of animals with small intestinal tumors, Adenoma [3, 13]: 1 number of animals
- Number of animals with small intestinal tumors, Total [3, 13]: 5 number of animals
- Small intestinal tumor multiplicity, Adenocarcinoma ([3]; 25 ppm in diet, Mean ± SD): 0.15 0.3 no. of tumors/animal
- Small intestinal tumor multiplicity, Adenoma ([3]; 25 ppm in diet, Mean ± SD): 0.04 0.2 no. of tumors/animal
- Small intestinal tumor multiplicity, Total ([3]; 25 ppm in diet, Mean ± SD): 0.19 0.3 no. of tumors/animal
- Incidence of small intestinal adenocarcinomas (in words) ([3]; differences among groups not significant): slightly reduced the incidence of small intestinal adenocarcinomas
- Inhibition of AOM-induced tumors in the small intestine (in words) ([3]; rat, in vivo): to a certain extent, in the small intestine
- Small intestinal tumor multiplicity, total (in words) ([3]; vs BTC diet and control diet): significantly inhibited in animals fed the BSC diet compared to those fed the BTC diet and control diet
- Multiplicity of small intestinal adenocarcinomas (in words) ([3]; vs control diet): significant inhibition in the multiplicity of small intestinal adenocarcinomas; also recorded: significantly inhibits
- % of animals with ear duct tumors [4]: 7 % of animals
- No. of animals with metastasis ([5]; 25 ppm in diet, AOM treated): 0 No. of animals
- AOM-induced metastasis (in words) ([5]; several organs): inhibits AOM-induced metastasis in several organs; also recorded: none of the animals in BSC and BTC diet groups developed metastasis
- Selenium-dependent glutathione peroxidase activity, Kidney [6, 14]: 1.70 0.29 μmol NADPH oxidized/min/mg protein
- Selenium-dependent glutathione peroxidase activity, Liver [6, 14]: 1.88 0.60 μmol NADPH oxidized/min/mg protein
- Selenium-dependent glutathione peroxidase activity, Plasma [6, 14]: 0.78 0.14 μmol NADPH oxidized/min/mg protein
- Selenium-dependent glutathione peroxidase activity, Colon ([6]; 25 ppm in diet 5 wk, colonic mucosa, Mean ± SE (n = 6)): 0.56 0.14 μmol NADPH oxidized/min/mg protein
- Selenium-dependent glutathione peroxidase activity, Small intestine ([6]; 25 ppm in diet 5 wk, small intestinal mucosa, Mean ± SE (n = 6)): 0.71 0.13 μmol NADPH oxidized/min/mg protein
- Selenium-dependent glutathione peroxidase activity (in words) ([6]; kidney, colon and small intestine): increase in selenium-dependent glutathione peroxidase activity in the kidney, colon, and small intestine; also recorded: significant increase in the enzyme activity in kidney and colonic and small intestinal mucosae of animals fed the BSC diet compared to that in those animals fed the BTC diet and control diet
- Selenium-dependent glutathione peroxidase activity (in words) ([6]; liver and plasma): no effect on this enzyme activity in the liver and plasma; also recorded: not affected
- Non-selenium-dependent glutathione peroxidase activity (in words) [7]: no differences in the activity of non-selenium-dependent glutathione peroxidase activity among the dietary groups
- Evidence of toxicity in animals fed the diet [8]: no evidence of toxicity
- LD50 (LD50 in rats): 125 mg/kg
- approximate LD50 in humans [9]: ~3025
- Inhibition of benzo(a)pyrene-induced forestomach tumors [10]: effective inhibitors of benzo(a) pyrene-induced forestomach tumors in mice

SMILES: COc1ccc([SeH])cc1 [MBS, p-methoxybenzenenselenol, reference compound]
- Inhibition of benzo(a)pyrene-induced forestomach tumors [10]: effective inhibitors of benzo(a) pyrene-induced forestomach tumors in mice
- Inhibition of AOM-induced carcinogenesis [11]: inhibited azoxymethane ("AOM")-induced colon, kidney, and hepatocarcinogenesis in rats
